Data published in patent publication US8343961B2, “Substituted heterocyclic compounds” (ArQule, Inc., priority 2009, dated 2013).

Each compound was assayed against T1, Tec kinase (Homo sapiens, UniProt P42680) (assay: Tec Kinase Activity Assay). Conditions: read-out: Tec % INH, at 30 uM.
T1 sequence (P42680 1-631): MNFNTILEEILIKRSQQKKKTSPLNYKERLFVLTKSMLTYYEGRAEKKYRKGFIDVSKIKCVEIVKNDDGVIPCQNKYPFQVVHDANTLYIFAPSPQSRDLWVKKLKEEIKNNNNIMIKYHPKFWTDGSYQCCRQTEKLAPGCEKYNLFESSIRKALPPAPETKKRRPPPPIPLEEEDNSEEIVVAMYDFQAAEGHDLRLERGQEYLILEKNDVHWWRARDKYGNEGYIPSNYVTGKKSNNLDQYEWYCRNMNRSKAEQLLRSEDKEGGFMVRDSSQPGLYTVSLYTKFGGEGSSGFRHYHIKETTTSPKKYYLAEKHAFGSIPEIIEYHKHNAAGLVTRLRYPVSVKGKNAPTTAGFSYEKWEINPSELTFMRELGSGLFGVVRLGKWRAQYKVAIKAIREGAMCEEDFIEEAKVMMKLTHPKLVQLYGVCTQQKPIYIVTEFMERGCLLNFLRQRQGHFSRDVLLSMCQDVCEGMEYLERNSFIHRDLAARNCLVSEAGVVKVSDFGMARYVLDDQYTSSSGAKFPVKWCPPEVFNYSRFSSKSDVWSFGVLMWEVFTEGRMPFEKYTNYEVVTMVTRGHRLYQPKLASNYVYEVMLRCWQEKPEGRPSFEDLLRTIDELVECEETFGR
Assay type: biochemical
Method: The disclosed compounds were assayed for their ability to inhibit the activity of Tec kinase. Nunc Maxisorb plates were coated with streptavidin by overnight incubation with 100 μL per well of 1 μg/mL Streptavidin in DPBS. Prior to the start of the experiment, the plates were washed with TBST (3×200 μL) and blocked for at least 1 hour by adding 150 μL of 5% BSA/TBST. The plates were washed with TBST (3×200 μL/well) and left dry immediately before the capture step.
The test articles and controls (Staurosporine and Sutent) were prepared using the following assay buffer @ 3× desired final concentration (50 mM Tris-HCl, 0.02 mg/mL BSA, 10 mM MgCl2, 0.1 mM Na3VO4, 1 mM EGTA, 75 μM ATP0.01% NP-40, 2 mM DTT in 10% glycerol/water). In a reaction plate were added rapidly 20 μL test article (or control) and 20 μL TEC 0.25 ng/4. The plate was incubated for 30 minutes. To the reaction plate was added 20 μL of Pyk-2.5 ng/μL. The plate was incubated at room temperature for two hours. From the reaction plate, 50 μL was transferred to the streptavidin coated plate. The capture plate was incubated at room temperature for 30 minutes then washed 6× with TBST. To the capture plate was added 100 μL/well of Cell Signaling anti-phospho tyrosine at a dilution of 1:3000 in 2% BSA/TBST. The plate was incubated for one hour at room temperature then washed 6× with TBST. To the capture plate was added 100 μL/well of Alkaline Phosphatase Tagged Goat anti Mouse Antibody at a dilution of 1:4000 in 2% BSA/TBST. The plate was incubated for one hour at room temperature then washed 6× with TBST. The fluorescent readout was initiated by the addition of 100 μL/well of Attophos reagent (6 mg/10 mL). The reading was done on the Perkin Elmer Envision system.

Question: Which inhibition at 30 µM does the source give for `Cc1ccc(CCCN2CCN(c3nc(N)nc4[nH]ncc34)Cc3ccccc32)cc1` [Compound 45, 4-{1-[3-(4-methylphenyl)propyl]-1,2,3,5-tetrahydro-4H-1,4-benzodiazepin-4-yl}-1H-pyrazolo[3,4-d]pyrimidin-6-amine] here?
Answer: Its inhibition at 30 µM is greater than 79%.

Question: How did the inhibition at 30 µM turn out when `COc1ccc(OC)c(CN2CCN(c3nc(N)nc4[nH]ncc34)Cc3ccccc32)c1` [Compound 36, 4-[1-(2,5-dimethoxybenzyl)-1,2,3,5-tetrahydro-4H-1,4-benzodiazepin-4-yl]-1H-pyrazolo[3,4-d]pyrimidin-6-amine] was run?
Answer: The inhibition at 30 µM was 50 to 79%.

Question: With `Nc1nc(N2CCN(Cc3ccc(F)c(F)c3)c3ccccc3C2)c2cn[nH]c2n1` [Compound 47, 4-[1-(3,4-difluorobenzyl)-1,2,3,5-tetrahydro-4H-1,4-benzodiazepin-4-yl]-1H-pyrazolo[3,4-d]pyrimidin-6-amine] as the compound, how does the inhibition at 30 µM read?
Answer: The inhibition at 30 µM was 50 to 79%.

Question: `Nc1nc(N2CCN(Cc3cccc(C(F)(F)F)c3)c3ccccc3C2)c2cn[nH]c2n1` [Compound 21, 4-{1-[3-(trifluoromethyl)benzyl]-1,2,3,5-tetrahydro-4H-1,4-benzodiazepin-4-yl}-1H-pyrazolo[3,4-d]pyrimidin-6-amine] was tested. Which inhibition at 30 µM did it give?
Answer: Its inhibition at 30 µM is 50 to 79%.

Question: Which inhibition at 30 µM does the source give for `Cc1cccc(CN2CCN(c3nc(N)nc4[nH]cnc34)Cc3ccccc32)c1` [Compound 33, 6-[1-(3-methylbenzyl)-1,2,3,5-tetrahydro-4H-1,4-benzodiazepin-4-yl]-9H-purin-2-amine] here?
Answer: Its inhibition at 30 µM is less than 50%.

Question: `COc1cc2c(cc1OC)C(CCc1ccccc1)N(c1nc(N)nc3[nH]ncc13)CC2` (stereo not shown) [Compound 51, 4-[6,7-dimethoxy-1-(2-phenylethyl)-3,4-dihydroisoquinolin-2(1H)-yl]-1H-pyrazolo[3,4-d]pyrimidin-6-amine] was tested. Which inhibition at 30 µM did it give?
Answer: The inhibition at 30 µM was less than 50%.

Question: For `Nc1nc(N2CCN(Cc3ccc(F)cc3F)c3ccccc3C2)c2nc[nH]c2n1` [Compound 37, 6-[1-(2,4-difluorobenzyl)-1,2,3,5-tetrahydro-4H-1,4-benzodiazepin-4-yl]-9H-purin-2-amine], which inhibition at 30 µM is on record?
Answer: Its inhibition at 30 µM is 50 to 79%.

Question: `Nc1nc(N2CCN(Cc3ccc(F)cc3)c3ccccc3C2)c2nc[nH]c2n1` [Compound 15, 6-[1-(4-fluorobenzyl)-1,2,3,5-tetrahydro-4H-1,4-benzodiazepin-4-yl]-9H-purin-2-amine] was tested. Which inhibition at 30 µM did it give?
Answer: The inhibition at 30 µM was 50 to 79%.

Question: Which inhibition at 30 µM does the source give for `Cc1ccc(CN2CCN(c3nc(N)nc4[nH]cnc34)Cc3ccccc32)cc1` [Compound 26, 6-[1-(4-methylbenzyl)-1,2,3,5-tetrahydro-4H-1,4-benzodiazepin-4-yl]-9H-purin-2-amine] here?
Answer: The inhibition at 30 µM was less than 50%.

Question: With `Nc1nc(N2CCN(CCCc3ccccc3)c3ccccc3C2)c2cn[nH]c2n1` [Compound 41, 4-[1-(3-phenylpropyl)-1,2,3,5-tetrahydro-4H-1,4-benzodiazepin-4-yl]-1H-pyrazolo[3,4-d]pyrimidin-6-amine] as the compound, how does the inhibition at 30 µM read?
Answer: Its inhibition at 30 µM is 50 to 79%.

Question: `Nc1nc(N2CCN(Cc3cccc(Cl)c3)c3ccccc3C2)c2cn[nH]c2n1` [Compound 25, 4-[1-(3-chlorobenzyl)-1,2,3,5-tetrahydro-4H-1,4-benzodiazepin-4-yl]-1H-pyrazolo[3,4-d]pyrimidin-6-amine] was tested. Which inhibition at 30 µM did it give?
Answer: Its inhibition at 30 µM is 50 to 79%.

Question: With `Nc1nc(N2CCN(Cc3cccc(Cl)c3)c3ccccc3C2)c2nc[nH]c2n1` [Compound 24, 6-[1-(3-chlorobenzyl)-1,2,3,5-tetrahydro-4H-1,4-benzodiazepin-4-yl]-9H-purin-2-amine] as the compound, how does the inhibition at 30 µM read?
Answer: Its inhibition at 30 µM is 50 to 79%.

Question: For `COc1cccc(CN2CCN(c3nc(N)nc4[nH]ncc34)Cc3ccccc32)c1` [Compound 1, 4-[1-(3-methoxybenzyl)-1,2,3,5-tetrahydro-4H-1,4-benzodiazepin-4-yl]-1H-pyrazolo[3,4-d]pyrimidin-6-amine], which inhibition at 30 µM is on record?
Answer: The inhibition at 30 µM was greater than 79%.

Question: For `Nc1nc(N2CCN(Cc3ccc(Cl)c(Cl)c3)c3ccccc3C2)c2nc[nH]c2n1` [Compound 42, 6-[1-(3,4-dichlorobenzyl)-1,2,3,5-tetrahydro-4H-1,4-benzodiazepin-4-yl]-9H-purin-2-amine], which inhibition at 30 µM is on record?
Answer: The inhibition at 30 µM was less than 50%.

Question: With `CC(C)(C)c1ccc(CN2CCN(c3nc(N)nc4[nH]cnc34)Cc3ccccc32)cc1` [Compound 29, 6-[1-(4-tert-butylbenzyl)-1,2,3,5-tetrahydro-4H-1,4-benzodiazepin-4-yl]-9H-purin-2-amine] as the compound, how does the inhibition at 30 µM read?
Answer: Its inhibition at 30 µM is less than 50%.

Question: `COc1ccccc1CN1CCN(c2nc(N)nc3[nH]cnc23)Cc2ccccc21` [Compound 9, 6-[1-(2-methoxybenzyl)-1,2,3,5-tetrahydro-4H-1,4-benzodiazepin-4-yl]-9H-purin-2-amine] was tested. Which inhibition at 30 µM did it give?
Answer: The inhibition at 30 µM was 50 to 79%.
